pIC50: −log10 of the molar value. Like-named read-outs stand apart in the source and are kept apart here.
Assays:
human TLR9 = human TLR9 (Homo sapiens (Human), UniProt Q9NR96); experiment: TLR9 inhibition reporter assay (HEK-Blue cells, SEAP reporter, ODN2006 stimulation);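 note: compounds tested over 0.05 nM to 50 µM, 22 h incubation, inhibition taken as SEAP signal drop from agonist plus DMSO wells toward a known inhibitor control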
human TLR8 = human TLR8 (Homo sapiens (Human), UniProt Q9NR97); experiment: TLR8 inhibition reporter assay (HEK-Blue cells, SEAP reporter, R848 stimulation);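 note: compounds tested from 0.05 nM to 50 µM, 22 h at 37 °C, SEAP measured with HEK-Blue Detection, inhibition relative to agonist plus DMSO versus a known inhibitor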
human TLR7 = human TLR7 (Homo sapiens (Human), UniProt Q9NYK1); experiment: TLR7 inhibition reporter assay (HEK-Blue cells, SEAP reporter, gardiquimod stimulation); assay type: cell-based
[1] = read-out: TLR9 IC50, HEK-Blue cells, ODN2006 5 nM
[2] = read-out: TLR8 IC50, HEK-Blue cells, R848 15.9 μM
[3] = HEK-Blue cells, gardiquimod 7.5 μM
[4] = read-out: TLR9 IC50, HEK-Blue cells overexpressing human TLR9, ODN2006 5 nM
[5] = read-out: TLR8 IC50, HEK-Blue cells overexpressing human TLR8, R848 15.9 μM
[6] = HEK-Blue cells overexpressing human TLR7, gardiquimod 7.5 μM

human TLR7, sequence (Q9NYK1 27-1049): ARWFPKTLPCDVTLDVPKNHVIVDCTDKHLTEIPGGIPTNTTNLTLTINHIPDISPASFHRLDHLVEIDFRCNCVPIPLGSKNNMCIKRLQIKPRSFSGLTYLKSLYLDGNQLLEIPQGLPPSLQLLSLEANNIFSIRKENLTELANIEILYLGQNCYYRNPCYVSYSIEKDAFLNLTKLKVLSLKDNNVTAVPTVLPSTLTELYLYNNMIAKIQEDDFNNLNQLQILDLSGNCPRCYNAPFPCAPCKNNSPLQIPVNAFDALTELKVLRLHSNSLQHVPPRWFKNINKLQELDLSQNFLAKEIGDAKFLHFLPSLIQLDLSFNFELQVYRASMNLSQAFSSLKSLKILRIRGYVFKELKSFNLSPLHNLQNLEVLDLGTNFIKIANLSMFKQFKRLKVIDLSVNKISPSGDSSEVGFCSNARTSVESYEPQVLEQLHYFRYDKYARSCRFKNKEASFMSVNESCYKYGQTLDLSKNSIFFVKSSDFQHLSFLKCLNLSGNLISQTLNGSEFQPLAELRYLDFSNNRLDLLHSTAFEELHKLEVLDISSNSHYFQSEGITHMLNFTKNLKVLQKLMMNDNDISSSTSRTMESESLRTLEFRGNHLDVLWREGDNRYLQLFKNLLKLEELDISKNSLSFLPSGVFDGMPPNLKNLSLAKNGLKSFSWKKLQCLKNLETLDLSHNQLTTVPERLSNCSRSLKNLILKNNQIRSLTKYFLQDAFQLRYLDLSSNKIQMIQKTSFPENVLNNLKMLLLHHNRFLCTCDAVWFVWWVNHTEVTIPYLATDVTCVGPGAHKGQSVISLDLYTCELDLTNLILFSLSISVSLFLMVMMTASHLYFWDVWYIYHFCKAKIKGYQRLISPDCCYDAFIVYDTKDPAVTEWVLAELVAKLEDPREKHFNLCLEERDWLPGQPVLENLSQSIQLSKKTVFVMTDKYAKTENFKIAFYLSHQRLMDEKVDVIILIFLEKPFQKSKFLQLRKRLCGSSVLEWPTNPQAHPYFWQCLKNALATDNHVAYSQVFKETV
human TLR9, sequence (Q9NR96 26-1032): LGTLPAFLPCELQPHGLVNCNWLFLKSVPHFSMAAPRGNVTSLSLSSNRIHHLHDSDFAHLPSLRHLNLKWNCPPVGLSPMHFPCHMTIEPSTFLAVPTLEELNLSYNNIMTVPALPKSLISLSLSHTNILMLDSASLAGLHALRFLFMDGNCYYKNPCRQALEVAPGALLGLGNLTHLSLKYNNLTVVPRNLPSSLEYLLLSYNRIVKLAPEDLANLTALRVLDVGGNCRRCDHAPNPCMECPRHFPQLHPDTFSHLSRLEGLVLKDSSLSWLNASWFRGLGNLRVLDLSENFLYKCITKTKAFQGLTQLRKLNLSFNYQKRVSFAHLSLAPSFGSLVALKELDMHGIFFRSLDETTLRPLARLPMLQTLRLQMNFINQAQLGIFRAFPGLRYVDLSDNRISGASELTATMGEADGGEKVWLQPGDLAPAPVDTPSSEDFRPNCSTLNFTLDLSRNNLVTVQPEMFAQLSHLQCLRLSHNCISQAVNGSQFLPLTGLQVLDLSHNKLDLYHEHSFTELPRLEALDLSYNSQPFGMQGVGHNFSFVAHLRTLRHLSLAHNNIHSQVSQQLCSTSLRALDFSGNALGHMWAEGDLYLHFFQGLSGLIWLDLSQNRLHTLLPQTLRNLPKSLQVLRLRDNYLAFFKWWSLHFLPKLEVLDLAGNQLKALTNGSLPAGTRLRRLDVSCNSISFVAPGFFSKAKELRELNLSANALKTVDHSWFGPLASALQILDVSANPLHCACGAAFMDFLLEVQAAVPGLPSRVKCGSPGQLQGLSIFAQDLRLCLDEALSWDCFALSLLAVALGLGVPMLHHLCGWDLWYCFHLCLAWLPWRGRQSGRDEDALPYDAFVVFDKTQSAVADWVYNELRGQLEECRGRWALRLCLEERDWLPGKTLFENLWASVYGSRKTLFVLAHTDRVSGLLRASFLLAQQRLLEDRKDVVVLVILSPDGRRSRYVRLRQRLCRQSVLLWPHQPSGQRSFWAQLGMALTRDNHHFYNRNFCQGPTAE
human TLR8, sequence (Q9NR97 27-1041): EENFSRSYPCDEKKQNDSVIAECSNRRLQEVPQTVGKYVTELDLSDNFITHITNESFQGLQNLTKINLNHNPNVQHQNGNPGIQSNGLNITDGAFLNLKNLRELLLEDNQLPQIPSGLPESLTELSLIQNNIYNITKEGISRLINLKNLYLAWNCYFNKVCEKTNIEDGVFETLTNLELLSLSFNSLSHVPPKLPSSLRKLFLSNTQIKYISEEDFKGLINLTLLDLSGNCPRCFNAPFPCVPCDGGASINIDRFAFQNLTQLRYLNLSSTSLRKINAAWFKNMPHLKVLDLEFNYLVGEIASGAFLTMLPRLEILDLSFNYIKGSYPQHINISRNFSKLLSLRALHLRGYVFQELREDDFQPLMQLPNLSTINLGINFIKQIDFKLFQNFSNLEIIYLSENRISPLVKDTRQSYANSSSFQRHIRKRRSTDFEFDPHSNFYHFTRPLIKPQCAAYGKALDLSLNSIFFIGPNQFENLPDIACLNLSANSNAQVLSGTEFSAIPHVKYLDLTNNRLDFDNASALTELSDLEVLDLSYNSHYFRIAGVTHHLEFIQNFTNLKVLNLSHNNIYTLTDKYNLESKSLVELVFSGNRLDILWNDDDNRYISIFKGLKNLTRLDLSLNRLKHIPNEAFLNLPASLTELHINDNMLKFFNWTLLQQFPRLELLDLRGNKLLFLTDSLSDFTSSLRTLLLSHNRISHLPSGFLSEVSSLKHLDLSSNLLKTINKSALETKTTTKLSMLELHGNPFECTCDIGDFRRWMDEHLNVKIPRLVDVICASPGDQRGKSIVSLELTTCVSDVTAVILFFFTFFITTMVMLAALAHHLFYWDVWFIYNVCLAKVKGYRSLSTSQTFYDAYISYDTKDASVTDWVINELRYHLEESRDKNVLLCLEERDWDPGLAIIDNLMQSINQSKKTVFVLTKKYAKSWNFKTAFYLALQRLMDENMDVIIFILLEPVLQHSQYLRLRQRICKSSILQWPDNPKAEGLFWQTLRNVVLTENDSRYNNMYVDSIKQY

pIC50 (human TLR9; [1])	pIC50 (human TLR8; [2])	pIC50 (human TLR7; [3])	pIC50 (human TLR9; [4])	pIC50 (human TLR8; [5])	pIC50 (human TLR7; [6])	SMILES
6.51	8.33	8.42				Cc1cc(-c2[nH]c3ccc(C4CCN(CC(O)C(C)(C)C)CC4)cc3c2C(C)C)cc(C)n1 (stereo not drawn) [Example 850, 1-(4-(2-(2,6-dimethylpyridin-4-yl)-3-isopropyl-1H-indol-5-yl)piperidin-1-yl)-3,3-dimethylbutan-2-ol]
			6.07	7.81	7.08	Cc1cc(-c2[nH]c3ccc(C4CCN(C(=O)[C@@H](N)Cc5c[nH]cn5)CC4)cc3c2C(C)C)ccn1 [Example 574, (S)-2-amino-3-(1H-imidazol-4-yl)-1-(4-(3-isopropyl-2-(2-methylpyridin-4-yl)-1H-indol-5-yl)piperidin-1-yl)propan-1-one]
			5.36	7.01	6.70	Cc1cc(-c2[nH]c3ccc(C4CCN(C(=O)[C@@H](N)CCCCN)CC4)cc3c2C(C)C)ccn1 [Example 579, (S)-2,6-diamino-1-(4-(3-isopropyl-2-(2-methylpyridin-4-yl)-1H-indol-5-yl)piperidin-1-yl)hexan-1-one]
			6.47	8.30	7.64	Cc1cc(-c2[nH]c3ccc(C4CCN(C5CCN(C(C)C)CC5F)CC4)cc3c2C(C)C)ccn1 (stereo not drawn) [Example 706, 5-(3′-fluoro-1′-isopropyl-[1,4′-bipiperidin]-4-yl)-3-isopropyl-2-(2-methylpyridin-4-yl)-1H-indole]
			6.00	7.39	8.01	CO[C@@H]1C[C@H](CO)N(CC(=O)N2CCC(c3ccc4[nH]c(-c5cc(C)nc(C)c5)c(C(C)C)c4c3)CC2)C1 [Example 395, 1-(4-(2-(2,6-dimethylpyridin-4-yl)-3-isopropyl-1H-indol-5-yl)piperidin-1-yl)-2-((2R,4R)-2-(hydroxymethyl)-4-methoxypyrrolidin-1-yl)ethan-1-one]
			6.50	7.84	8.46	CN[C@@H](C)C(=O)N1CCC(c2ccc3[nH]c(-c4cc(C)nc(C)c4)c(C(C)C)c3c2)CC1 [Example 191, (S)-1-(4-(2-(2,6-dimethylpyridin-4-yl)-3-isopropyl-1H-indol-5-yl)piperidin-1-yl)-2-(methylamino)propan-1-one]
			6.51	< 4.30	5.17	CCc1c(-c2ccnc(OCCN(C)C)c2)[nH]c2ccc(C3CCN(C4CCN(CC(C)C)CC4)CC3)cc12 [Example 770, 2-((4-(3-ethyl-5-(1′-isobutyl-[1,4′-bipiperidin]-4-yl)-1H-indol-2-yl)pyridin-2-yl)oxy)-N,N-dimethylethan-1-amine]
			5.75	5.85	5.77	CCc1c(-c2ccnc(OC)c2)[nH]c2ccc(C3CCN(C4CCN(C)CC4)CC3)cc12 [Example 790, 3-ethyl-2-(2-methoxypyridin-4-yl)-5-(1′-methyl-[1,4′-bipiperidin]-4-yl)-1H-indole]
			5.71	8.51	7.51	Cc1cc(-c2[nH]c3ccc(C4CCN(CC(O)C(F)(F)F)CC4)cc3c2C(C)C)ccn1 (stereo not drawn) [Example 661, 1,1,1-trifluoro-3-(4-(3-isopropyl-2-(2-methylpyridin-4-yl)-1H-indol-5-yl)piperidin-1-yl)propan-2-ol]
5.93	7.03	6.83				CCc1c(-c2ccnc(C)c2)[nH]c2ccc(C3CCN(C(=O)NC4CCNCC4)CC3)cc12 [Example 845, 4-(3-ethyl-2-(2-methylpyridin-4-yl)-1H-indol-5-yl)-N-(piperidin-4-yl)piperidine-1-carboxamide]
			6.36	7.43	7.12	CCc1c(-c2ccnc(C)c2)[nH]c2ccc(C3CCN(C(=O)C4CC5(CCNCC5)C4)CC3)cc12 [Example 631, (4-(3-ethyl-2-(2-methylpyridin-4-yl)-1H-indol-5-yl)piperidin-1-yl)(7-azaspiro[3.5]nonan-2-yl)methanone]
			6.11	7.36	8.12	Cc1cc(-c2[nH]c3ccc(C4CCN(C(=O)CNC(CO)CC(C)C)CC4)cc3c2C(C)C)cc(C)n1 (stereo not drawn) [Example 382, 1-(4-(2-(2,6-dimethylpyridin-4-yl)-3-isopropyl-1H-indol-5-yl)piperidin-1-yl)-2-((1-hydroxy-4-methylpentan-2-yl)amino)ethan-1-one]
6.08	7.51	8.54				Cc1cc(-c2[nH]c3ccc(C4CCN(C(=O)C(=O)N5CCN(C)CC5)CC4)cc3c2C(C)C)cc(C)n1 [Example 856, 1-(4-(2-(2,6-dimethylpyridin-4-yl)-3-isopropyl-1H-indol-5-yl)piperidin-1-yl)-2-(4-methylpiperazin-1-yl)ethane-1,2-dione]
			< 4.30	7.21	7.91	Cc1cc(-c2[nH]c3ccc(C4CCN(C(=O)C5(C(N)=O)CC5)CC4)cc3c2C(C)C)cc(C)n1 [Example 133, 1-(4-(2-(2,6-dimethylpyridin-4-yl)-3-isopropyl-1H-indol-5-yl)piperidine-1-carbonyl)cyclopropane-1-carboxamide]
			5.84	9.10	7.63	Cc1cc(-c2[nH]c3ccc(C4CCN(Cc5ccn(C)n5)CC4)cc3c2C(C)C)c(C)cn1 [Example 689, 2-(2,5-dimethylpyridin-4-yl)-3-isopropyl-5-(1-((1-methyl-1H-pyrazol-3-yl)methyl)piperidin-4-yl)-1H-indole]
6.20	8.42	8.39				COC[C@H](O)CN1CCC(c2ccc3[nH]c(-c4cc(C)nc(C)c4)c(C(C)C)c3c2)CC1 [Example 852, (R)-1-(4-(2-(2,6-dimethylpyridin-4-yl)-3-isopropyl-1H-indol-5-yl)piperidin-1-yl)-3-methoxypropan-2-ol]
			6.39	8.04	8.36	Cc1cc(-c2[nH]c3ccc(C4CCN(CC(=O)N5CC6(COC6)C5)CC4)cc3c2C(C)C)cc(C)n1 [Example 256, 2-(4-(2-(2,6-dimethylpyridin-4-yl)-3-isopropyl-1H-indol-5-yl)piperidin-1-yl)-1-(2-oxa-6-azaspiro[3.3]heptan-6-yl)ethan-1-one]
			6.55	7.75	8.44	Cc1cc(-c2[nH]c3ccc(C4CCN(C(=O)CNC5CCOCC5)CC4)cc3c2C(C)C)cc(C)n1 [Example 386, 1-(4-(2-(2,6-dimethylpyridin-4-yl)-3-isopropyl-1H-indol-5-yl)piperidin-1-yl)-2-((tetrahydro-2H-pyran-4-yl)amino)ethan-1-one]
			5.72	8.42	8.74	Cc1cc(-c2[nH]c3ccc(C4CCNCC4)cc3c2C(C)C)cc(F)n1 [Example 3, 2-(2-fluoro-6-methylpyridin-4-yl)-3-isopropyl-5-(piperidin-4-yl)-1H-indole]
			4.56	7.09	8.07	Cc1cc(-c2[nH]c3ccc(C4CCN(C(=O)C5CCCO5)CC4)cc3c2C(C)C)cc(C)n1 (stereo not drawn) [Example 103, (4-(2-(2,6-dimethylpyridin-4-yl)-3-isopropyl-1H-indol-5-yl)piperidin-1-yl)(tetrahydrofuran-2-yl)methanone]
			< 4.30	8.72	8.03	Cc1cc(-c2[nH]c3ccc(C4CCN(CCC#N)CC4)cc3c2C(C)C)c(F)cn1 [Example 656, 3-(4-(2-(5-fluoro-2-methylpyridin-4-yl)-3-isopropyl-1H-indol-5-yl)piperidin-1-yl)propanenitrile]
			4.33	7.07	8.13	Cc1cc(-c2[nH]c3ccc(C4CCN(C(=O)CCNc5ncccn5)CC4)cc3c2C(C)C)cc(C)n1 [Example 146, 1-(4-(2-(2,6-dimethylpyridin-4-yl)-3-isopropyl-1H-indol-5-yl)piperidin-1-yl)-3-(pyrimidin-2-ylamino) propan-1-one]
			4.57	6.93	7.34	Cc1cc(-c2[nH]c3ccc(C4CCN(C(=O)C5CCOCC5)CC4)cc3c2C(C)C)ccn1 [Example 597, (4-(3-isopropyl-2-(2-methylpyridin-4-yl)-1H-indol-5-yl)piperidin-1-yl)(tetrahydro-2H-pyran-4-yl)methanone]
7.00	8.62	7.29				Cc1cc(-c2[nH]c3ccc(C4CCN(C5CCN(C(C)C)CC5)CC4)cc3c2C)c(C)cn1 [Example 814, 2-(2,5-dimethylpyridin-4-yl)-5-(1′-isopropyl-[1,4′-bipiperidin]-4-yl)-3-methyl-1H-indole]
			5.55	7.53	7.47	CC(C)c1c(-c2ccncc2)[nH]c2ccc(C3CCN(C(=O)CN(C)C)CC3)cc12 [Example 524, 2-(dimethylamino)-1-(4-(3-isopropyl-2-(pyridin-4-yl)-1H-indol-5-yl)piperidin-1-yl) ethan-1-one]
			5.69	7.18	7.44	FC(F)Cc1c(-c2ccnc(Cl)c2)[nH]c2ccc(C3CCNCC3)cc12 [Example 494, 2-(2-chloropyridin-4-yl)-3-(2,2-difluoroethyl)-5-(piperidin-4-yl)-1H-indole]
			5.20	6.32	6.70	CC(C)c1c(-c2cc(Cl)ncc2C#N)[nH]c2ccc(C3CCNCC3)cc12 [Example 26, 6-chloro-4-(3-isopropyl-5-(piperidin-4-yl)-1H-indol-2-yl)nicotinonitrile]
			5.36	7.70	7.90	Cc1cc(-c2[nH]c3ccc(C4CCN(C(=O)CN(C)CCC#N)CC4)cc3c2C(C)C)c(F)cn1 [Example 679, 3-((2-(4-(2-(5-fluoro-2-methylpyridin-4-yl)-3-isopropyl-1H-indol-5-yl)piperidin-1-yl)-2-oxoethyl)(methyl)amino)propanenitrile]

— patent US10660877B2 (BRISTOL-MYERS SQUIBB COMPANY, priority 2016, dated 2020)
